According to ChEMBL document CHEMBL1201862, “PubChem BioAssay data set” (2004):
The source made the active and inactive calls.

How the values were obtained:
[1] = target: T1, Nuclear receptor subfamily 0 group B member 1 (Homo sapiens, UniProt P51843); assay type: functional, cell-based;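 further: HEK293T cells transfected with SF-1 and DAX-1 plus StAR promoter luciferase reporter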
T1 sequence (P51843 whole entry): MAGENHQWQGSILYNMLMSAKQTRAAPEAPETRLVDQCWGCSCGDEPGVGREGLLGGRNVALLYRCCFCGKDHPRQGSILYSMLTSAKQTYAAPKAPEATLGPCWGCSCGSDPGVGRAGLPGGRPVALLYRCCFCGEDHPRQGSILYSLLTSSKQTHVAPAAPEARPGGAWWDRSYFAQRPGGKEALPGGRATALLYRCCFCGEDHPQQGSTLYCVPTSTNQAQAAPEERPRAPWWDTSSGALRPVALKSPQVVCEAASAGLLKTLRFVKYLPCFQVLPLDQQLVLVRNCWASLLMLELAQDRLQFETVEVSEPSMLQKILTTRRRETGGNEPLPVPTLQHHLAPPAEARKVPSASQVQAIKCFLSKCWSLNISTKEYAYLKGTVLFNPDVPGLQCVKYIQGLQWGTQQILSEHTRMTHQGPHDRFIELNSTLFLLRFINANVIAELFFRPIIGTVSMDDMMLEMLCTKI

cells [2] = assay type: functional, cell-based
[3] = HEK293T cytotoxicity, dose response, cytotoxicity control for miR-122 modulator project, cell-based, inhibitor set, cherry-pick, set 2 (AID 720697); assay type: functional
[4] = inhibitors of Vif binding to APOBEC3G peptide, primary screen, biochemical, TR-FRET, GST-Vif 1-94, biotin-A3G peptide, dose response retest (AID 1117319); assay type: functional;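 further: TR-FRET signal of purified GST-Vif binding a biotinylated A3G peptide; inhibitors lower the FRET signal by blocking Vif and A3G binding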
[5] = CRF-BP/CRF-R2 complex antagonists, dose response, cell-based, uHTS hits, 384-well (AID 651639); assay type: functional, Homo sapiens; conditions: read-out: IC50_Mean
[6] = target: T2, Corticotropin-releasing factor receptor 2/Corticotropin-releasing factor-binding protein (Homo sapiens, UniProt P24387+Q13324); assay: Dose Response confirmation of uHTS hits for small molecule antagonists of the CRF-binding protein and CRF-R2 receptor complex.; assay type: functional; conditions: read-out: IC50_Mean
T2 sequence (Q13324 whole entry): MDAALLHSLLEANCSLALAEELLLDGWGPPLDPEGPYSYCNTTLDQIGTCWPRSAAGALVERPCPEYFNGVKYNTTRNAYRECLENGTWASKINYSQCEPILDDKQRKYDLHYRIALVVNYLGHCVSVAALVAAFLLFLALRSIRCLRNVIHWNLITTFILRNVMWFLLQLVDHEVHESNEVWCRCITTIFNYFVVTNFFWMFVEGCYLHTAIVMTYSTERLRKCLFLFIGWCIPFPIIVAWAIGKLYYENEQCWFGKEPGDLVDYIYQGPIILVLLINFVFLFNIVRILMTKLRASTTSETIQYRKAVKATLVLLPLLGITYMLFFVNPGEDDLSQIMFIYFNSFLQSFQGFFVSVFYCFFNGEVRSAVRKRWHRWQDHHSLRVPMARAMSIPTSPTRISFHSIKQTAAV
T2 sequence (P24387 whole entry): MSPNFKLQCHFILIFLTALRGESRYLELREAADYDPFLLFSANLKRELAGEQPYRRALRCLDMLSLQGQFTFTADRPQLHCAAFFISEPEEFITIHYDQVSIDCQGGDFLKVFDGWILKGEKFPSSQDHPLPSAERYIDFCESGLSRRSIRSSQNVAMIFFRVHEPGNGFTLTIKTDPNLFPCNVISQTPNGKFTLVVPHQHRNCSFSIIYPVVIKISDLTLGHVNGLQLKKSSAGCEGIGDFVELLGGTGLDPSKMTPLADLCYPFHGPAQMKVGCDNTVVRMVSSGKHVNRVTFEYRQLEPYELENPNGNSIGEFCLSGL

[7] = target: T2, Corticotropin-releasing factor receptor 2/Corticotropin-releasing factor-binding protein; assay: activators of CRF receptor 2 with binding protein – uHTS hits, confirmation (AID 602473); assay type: functional; conditions: read-out: EC50_Mean
[8] = HepG2 cell cytotoxicity, dose response, cytotoxicity control for non-replicating M. tuberculosis project (AID 489018); assay type: functional; conditions: Mycobacterium tuberculosis
cells [9] = assay: cells
cells [10] = assay type: functional
[11] = target: T3, Oxysterols receptor LXR-beta (Homo sapiens, UniProt P55055); assay type: functional, cell-based;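 further: Cell-based luminescence dose-response assay of agonist activity at LXR, run as a confirmatory counterscreen to a daf-12 agonist screen; HEK293 cells with Gal4-LXR fusion and GAL4-driven luciferase reporter; agonist potency from rising luciferase signal of a Gal4-LXR reporter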
T3 sequence (P55055 whole entry): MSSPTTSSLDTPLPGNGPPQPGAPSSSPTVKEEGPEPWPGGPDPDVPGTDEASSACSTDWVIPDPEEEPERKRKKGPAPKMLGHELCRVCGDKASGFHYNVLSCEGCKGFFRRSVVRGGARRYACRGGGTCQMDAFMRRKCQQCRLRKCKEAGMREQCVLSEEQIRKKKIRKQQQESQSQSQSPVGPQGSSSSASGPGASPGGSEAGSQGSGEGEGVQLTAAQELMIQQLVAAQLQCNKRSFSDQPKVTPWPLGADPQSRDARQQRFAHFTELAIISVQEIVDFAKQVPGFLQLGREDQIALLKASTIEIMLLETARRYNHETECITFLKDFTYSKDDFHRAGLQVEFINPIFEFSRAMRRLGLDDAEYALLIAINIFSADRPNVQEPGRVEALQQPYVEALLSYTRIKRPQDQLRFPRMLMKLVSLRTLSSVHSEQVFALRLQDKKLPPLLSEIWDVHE

[12] = target: Glucose-6-phosphate 1-dehydrogenase (Homo sapiens, UniProt P11413); assay: human G6PD enzyme inhibitors, dose response, selectivity assay for P. falciparum G6PD inhibitor project, biochemical, fluorescence (AID 504792); assay type: functional
Sequence of Glucose-6-phosphate 1-dehydrogenase (P11413 whole entry): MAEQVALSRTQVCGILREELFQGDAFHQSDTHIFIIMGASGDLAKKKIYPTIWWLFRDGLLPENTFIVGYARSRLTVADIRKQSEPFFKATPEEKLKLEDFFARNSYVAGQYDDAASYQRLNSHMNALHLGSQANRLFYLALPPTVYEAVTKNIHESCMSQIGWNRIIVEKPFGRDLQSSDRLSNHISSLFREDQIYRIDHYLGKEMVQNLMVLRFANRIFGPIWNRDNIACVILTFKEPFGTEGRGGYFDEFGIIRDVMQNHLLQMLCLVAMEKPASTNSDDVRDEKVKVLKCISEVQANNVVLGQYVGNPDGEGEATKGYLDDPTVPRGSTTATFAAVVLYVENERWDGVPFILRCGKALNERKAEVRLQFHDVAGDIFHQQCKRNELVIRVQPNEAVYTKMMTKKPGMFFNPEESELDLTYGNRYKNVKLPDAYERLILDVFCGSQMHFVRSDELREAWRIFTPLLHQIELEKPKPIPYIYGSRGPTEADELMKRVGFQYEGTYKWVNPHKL

[13] = inhibitors of PGC1a acetylation in cells, dose response, cell-based, cherry-picked samples (AID 720514); assay type: functional;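 further: potency may reflect raised or lowered acetylation signal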
Cytochrome P450 2D6 = Cytochrome P450 2D6 (Homo sapiens, UniProt P10635);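 further: CYP2D6 member of a cytochrome P450 panel assay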
Sequence of Cytochrome P450 2D6 (P10635 whole entry): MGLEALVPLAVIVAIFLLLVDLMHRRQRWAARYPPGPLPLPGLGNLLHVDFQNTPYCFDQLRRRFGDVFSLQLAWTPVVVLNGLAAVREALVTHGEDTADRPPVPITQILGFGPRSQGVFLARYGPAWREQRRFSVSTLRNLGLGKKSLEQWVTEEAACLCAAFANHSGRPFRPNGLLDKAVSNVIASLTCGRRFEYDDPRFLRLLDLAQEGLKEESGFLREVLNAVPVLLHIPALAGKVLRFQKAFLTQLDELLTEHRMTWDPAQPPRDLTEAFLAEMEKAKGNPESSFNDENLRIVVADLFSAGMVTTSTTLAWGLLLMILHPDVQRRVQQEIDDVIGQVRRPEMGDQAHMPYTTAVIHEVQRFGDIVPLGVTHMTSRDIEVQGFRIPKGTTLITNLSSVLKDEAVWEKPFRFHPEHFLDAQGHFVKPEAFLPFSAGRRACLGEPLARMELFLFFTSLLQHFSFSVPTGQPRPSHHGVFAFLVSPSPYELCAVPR

Cytochrome P450 3A4 = Cytochrome P450 3A4 (Homo sapiens, UniProt P08684);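 further: CYP3A4 tested as one member of a cytochrome P450 panel screen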
Sequence of Cytochrome P450 3A4 (P08684 whole entry): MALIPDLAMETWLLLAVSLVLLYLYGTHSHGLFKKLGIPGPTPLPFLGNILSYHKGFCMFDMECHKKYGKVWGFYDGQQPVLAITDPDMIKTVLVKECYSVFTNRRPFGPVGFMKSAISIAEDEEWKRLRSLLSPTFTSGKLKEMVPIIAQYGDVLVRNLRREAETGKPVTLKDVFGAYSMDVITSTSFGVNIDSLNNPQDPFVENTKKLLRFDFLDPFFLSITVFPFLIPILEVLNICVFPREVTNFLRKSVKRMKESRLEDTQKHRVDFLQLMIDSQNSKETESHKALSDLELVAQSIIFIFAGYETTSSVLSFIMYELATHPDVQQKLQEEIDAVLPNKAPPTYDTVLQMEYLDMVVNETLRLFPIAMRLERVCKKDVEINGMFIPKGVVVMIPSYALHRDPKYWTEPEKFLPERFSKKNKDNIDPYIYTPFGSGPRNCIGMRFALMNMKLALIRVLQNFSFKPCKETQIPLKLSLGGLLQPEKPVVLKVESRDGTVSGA

Cytochrome P450 2C9 = Cytochrome P450 2C9 (Homo sapiens, UniProt P11712)
Sequence of Cytochrome P450 2C9 (P11712 whole entry): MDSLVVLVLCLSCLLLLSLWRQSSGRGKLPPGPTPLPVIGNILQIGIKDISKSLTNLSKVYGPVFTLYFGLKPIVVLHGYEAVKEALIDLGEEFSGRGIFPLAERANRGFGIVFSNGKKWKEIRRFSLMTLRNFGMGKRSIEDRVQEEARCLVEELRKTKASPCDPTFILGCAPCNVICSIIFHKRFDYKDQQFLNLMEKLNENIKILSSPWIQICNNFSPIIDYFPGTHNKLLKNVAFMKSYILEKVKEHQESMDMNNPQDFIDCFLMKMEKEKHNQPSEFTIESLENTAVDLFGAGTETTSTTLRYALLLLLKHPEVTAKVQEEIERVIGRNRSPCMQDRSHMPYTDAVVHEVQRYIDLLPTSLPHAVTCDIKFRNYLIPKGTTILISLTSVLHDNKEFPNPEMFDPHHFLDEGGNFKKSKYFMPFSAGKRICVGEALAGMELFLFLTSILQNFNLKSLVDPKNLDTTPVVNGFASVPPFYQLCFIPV

In the case of `O=C1C(=Cc2ccccc2Cl)CCc2ccccc21`, the IC50 [1] was > 67.5 µM (inactive) and the IC50 (cells [2]) was > 67.5 µM (inactive).
In the case of `Cc1cc2n(n1)C(c1cn(-c3ccccc3)nc1C)Nc1c(C)cccc1-2` (stereo not given), the AC50 [3] was 562 nM (active).
For `CC(=O)Nc1c(O)nc(SCC(=O)Nc2ccc(C(C)=O)cc2)nc1O`, the IC50 [4] was > 100 µM (active).
With `Cc1cc(C)c(C)c(S(=O)(=O)Nc2ccccc2C(=O)O)c1C` the IC50 [5] was > 20 µM (inactive), the IC50 [6] was 16.3 µM (active) and the EC50 [7] was > 53 µM (inactive).
For `C=C1[C@@H](C)C2[C@H](Cc3ccccc3)NC(=O)[C@]23[C@H](OC(C)=O)/C=C/[C@@](C)(O)C(=O)[C@@H](C)C/C=C/[C@H]3[C@@H]1O` (stereo not given in full), the IC50 [1] was 14 µM (inactive) and the IC50 (cells [2]) was > 67.5 µM (inactive).
With `Cc1ccc(/N=N/c2c(C)[nH]n(C(N)=S)c2=O)cc1C` the CC50 [8] was > 20 µM (active), the EC50 (cells [9]) was > 67.5 µM (inactive) and the IC50 (cells [10]) was 10.1 µM (active). For the same compound, the EC50 [11] was > 67.5 µM (inactive).
With `N#Cc1c(C#N)c(SSc2c(C#N)c(C#N)c(N)n2-c2ccccc2)n(-c2ccccc2)c1N` the IC50 [12] was > 80 µM (inactive).
In the case of `Clc1ccc(Cl)c(Oc2ccc(Oc3nc(Cl)ccc3Cl)cc2)n1`, the IC50 [5] was 11.4 µM (active), the IC50 [6] was 0.727 µM (active) and the EC50 [7] was > 53 µM (inactive).
For `CO[C@@H]1CN(C)C(=O)c2cc(NC(=O)NC(C)C)ccc2OC[C@H](C)N(Cc2cncnc2)C[C@H]1C`, the AC50 [3] was 472 nM (active).
With `COc1ccccc1C#Cc1ccc2c(c1)O[C@@H](CN(C)Cc1cccnc1)[C@H](C)CN([C@@H](C)CO)S2(=O)=O` the AC50 [13] was 2.25 µM (active).
For `FC(F)(F)c1cccc(NC(=S)Nc2cccc(Cl)c2)c1`, the AC50 (Cytochrome P450 2D6) was 28.2 µM (inconclusive), the AC50 (Cytochrome P450 3A4) was 25.1 µM (inconclusive) and the AC50 (Cytochrome P450 2C9) was “inconclusive”.
With `CCc1c(C)sc(NC(=O)c2cc(-c3ccco3)on2)c1C#N` the IC50 [4] was > 100 µM (active).
In the case of `Cc1ccc(Cc2c(-c3ccc(Br)cc3)nc3cc(C)ccn23)cc1`, the IC50 [1] was > 67.5 µM (inactive) and the IC50 (cells [2]) was > 67.5 µM (inactive).
